Test results as given in US5700804A, “Pharmaceutical compounds” (Xenova Limited, priority 1992, dated 1997).

Biological target: PAI-1 (Homo sapiens, UniProt P05121)
Assay: PAI chromogenic substrate assay (first S2251 assay, tPA/plasminogen system)
Type: biochemical
Method: In this assay, a compound is incubated with PAI-1 prior to addition to the tPA assay system. Inhibition of PAI-1 results in the production of plasmin from plasminogen. In turn, plasmin cleaves the chromogenic substrate S2251 (Kabi Vitrum) producing pNA (p-nitroaniline) which is detected spectrophotometrically at 405 nm (K. Nilsson et al, Fibrinolysis (1987) 1, 163-168).
Compounds of formula (A) were tested in a PAI chromogenic substrate assay. In the first assay (K. Nilsson, Fibrinolysis (1987) 1, 163-168) each compound was incubated with PAI-1 prior to addition to the tPA assay system. […] In turn, the plasmin cleaved the chromogenic substrate S2251 (Kabi-Vitrum) producing pNA (p-nitroaniline) which was detected spectrophotometrically at 405 nm.

Chain of PAI-1 (P05121 24-402): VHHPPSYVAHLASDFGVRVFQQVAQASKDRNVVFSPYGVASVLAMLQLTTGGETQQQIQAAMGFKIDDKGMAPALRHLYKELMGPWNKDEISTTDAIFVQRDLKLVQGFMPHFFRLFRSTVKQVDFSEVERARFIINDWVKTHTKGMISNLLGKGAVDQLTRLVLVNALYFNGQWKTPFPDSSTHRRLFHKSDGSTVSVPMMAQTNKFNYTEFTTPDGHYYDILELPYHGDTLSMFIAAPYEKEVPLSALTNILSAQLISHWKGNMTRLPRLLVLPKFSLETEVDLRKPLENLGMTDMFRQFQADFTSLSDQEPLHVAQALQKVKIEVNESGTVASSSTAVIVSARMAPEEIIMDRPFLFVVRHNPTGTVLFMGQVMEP

Row | Compound | Inhibition of PAI-1 in the first S2251 chromogenic substrate assay (Concentration 6.25 μm) | Inhibition of PAI-1 in the first S2251 chromogenic substrate assay (Concentration 12.5 μm) | Inhibition of PAI-1 in the first S2251 chromogenic substrate assay (Concentration 25 μm) | Inhibition of PAI-1 in the first S2251 chromogenic substrate assay (Concentration 50 μm) | Inhibition of PAI-1 in the first S2251 chromogenic substrate assay (Concentration 100 μm) | Inhibition of PAI-1 in the first S2251 chromogenic substrate assay (Concentration 3.75 μm) | Inhibition of PAI-1 in the first S2251 chromogenic substrate assay (Concentration 7.5 μm) | Inhibition of PAI-1 in the first S2251 chromogenic substrate assay (Concentration 15 μm) | Inhibition of PAI-1 in the first S2251 chromogenic substrate assay (Concentration 30 μm) | Inhibition of PAI-1 in the first S2251 chromogenic substrate assay (Concentration 60 μm)
1 | CCCCOc1ccc(/C=c2\[nH]c(=O)/c(=C/c3ccc(OC)cc3)[nH]c2=O)cc1 [Compound 47, (3Z,6Z)-3-(4-Butoxybenzylidene)-6-(4-methoxybenzylidene)-2,5-piperazinedione] | – | 14% | 14% | 58% | 75% | – | – | – | – | –
2 | COc1ccc(/C=c2\[nH]c(=O)/c(=C/c3ccc4ccccc4c3)[nH]c2=O)cc1 [Compound 27, (3Z,6Z)-3-(4-Methoxybenzylidene)-6-(2-naphthylmethylene)-2,5-piperazinedione] | – | 9% | 8% | 35% | 70% | – | – | – | – | –
3 | COc1ccc(/C=c2\[nH]c(=O)/c(=C/c3ccc(N(C)C(C)=O)cc3)[nH]c2=O)cc1 [Compound 41, (3Z,6Z)-3-(4-Methoxybenzylidene)-6-(4-N-methylacetamidobenzylidene)-2,5-piperazinedione] | 3% | 8% | 32% | 45% | 51% | – | – | – | – | –
4 | O=c1[nH]/c(=C\c2cccc([N+](=O)[O-])c2)c(=O)[nH]/c1=C\c1ccccc1 [Compound 24, (3Z,6Z)-6-Benzylidene-3-(3-nitrobenzylidene)-2,5-piperazinedione] | – | – | – | – | – | 0% | 0% | 0% | 29% | 56%
5 | CC(=O)Nc1ccc(/C=c2\[nH]c(=O)/c(=C/c3ccc(COC(C)=O)cc3)[nH]c2=O)cc1 [Compound 58, (3Z,6Z)-3-(4-Acetamidobenzylidene)-6-(4-acetoxymethylbenzylidene)-2,5-piperazinedione] | – | 1% | 1% | 31% | 60% | – | – | – | – | –
6 | CC(C)(C)c1ccc(/C=c2\[nH]c(=O)/c(=C/c3ccccc3)[nH]c2=O)cc1 [Compound 51, (3Z,6Z)-6-Benzylidene-3-(4-tert-butylbenzylidene)-2,5-piperazinedione] | – | 5% | 38% | 61% | 79% | – | – | – | – | –
7 | CC(=O)OCc1ccc(/C=c2\[nH]c(=O)/c(=C/c3ccccc3)[nH]c2=O)cc1 [Compound 43, (3Z,6Z)-3-(4-Acetoxymethylbenzylidene)-6-benzylidene-2,5-piperazinedione] | 1% | 1% | 3% | 45% | 59% | – | – | – | – | –
8 | O=c1[nH]/c(=C\c2cccc(O)c2)c(=O)[nH]/c1=C\c1ccccc1 [Compound 33, (3Z,6Z)-6-Benzylidene-3-(3-hydroxybenzylidene)-2,5-piperazinedione] | 0% | 1% | 1% | 3% | 56% | – | – | – | – | –
9 | O=c1[nH]/c(=C\c2ccccc2)c(=O)[nH]/c1=C\c1ccccc1 [Compound 45, (3Z,6Z)-3,6-Dibenzylidene-2,5-piperazinedione] | – | 1% | 1% | 13% | 53% | – | – | – | – | –
10 | COc1ccc(/C=c2\[nH]c(=O)/c(=C/c3ccc(C(C)(C)C)cc3)[nH]c2=O)cc1 [Compound 50, (3Z,6Z)-3-(4-methoxybenzylidene)-6-(4-tert-butylbenzylidene)-2,5-piperazinedione] | – | 2% | 22% | 37% | 62% | – | – | – | – | –
11 | O=c1[nH]/c(=C\c2cccc([N+](=O)[O-])c2)c(=O)[nH]/c1=C\c1cccc([N+](=O)[O-])c1 [Compound 35, (3Z,6Z)-3,6-Di-(3-Nitrobenzylidene)-2,5-piperazinedione] | – | – | 2% | 28% | 52% | – | – | – | – | –
12 | CC(=O)Nc1ccc(/C=c2\[nH]c(=O)/c(=C/c3ccc(Cl)cc3)[nH]c2=O)cc1 [Compound 42, (3Z,6Z)-3-(4-Acetamidobenzylidene)-6-(4-chlorobenzylidene)-2,5-piperazinedione] | – | – | – | – | – | 1% | 4% | 59% | 57% | 58%

Next, values leading:

Row | Inhibition of PAI-1 in the first S2251 chromogenic substrate assay (Concentration 6.25 μm) | Inhibition of PAI-1 in the first S2251 chromogenic substrate assay (Concentration 12.5 μm) | Inhibition of PAI-1 in the first S2251 chromogenic substrate assay (Concentration 25 μm) | Inhibition of PAI-1 in the first S2251 chromogenic substrate assay (Concentration 50 μm) | Inhibition of PAI-1 in the first S2251 chromogenic substrate assay (Concentration 100 μm) | Inhibition of PAI-1 in the first S2251 chromogenic substrate assay (Concentration 3.75 μm) | Inhibition of PAI-1 in the first S2251 chromogenic substrate assay (Concentration 7.5 μm) | Inhibition of PAI-1 in the first S2251 chromogenic substrate assay (Concentration 15 μm) | Inhibition of PAI-1 in the first S2251 chromogenic substrate assay (Concentration 30 μm) | Inhibition of PAI-1 in the first S2251 chromogenic substrate assay (Concentration 60 μm) | Compound
13 | 7% | 40% | 66% | 55% | 63% | – | – | – | – | – | CN(C)c1ccc(/C=c2\[nH]c(=O)/c(=C/c3ccccc3)[nH]c2=O)c2ccccc12 [Compound 89]
14 | 31% | 41% | 48% | 37% | 23% | – | – | – | – | – | CC(=O)Nc1ccc(/C=c2\[nH]c(=O)/c(=C/c3ccc(N(C)C)cc3)[nH]c2=O)cc1 [Compound 86, (3Z,6Z)-3-(4-Acetamidobenzylidene)-6-(4-dimethylaminobenzylidene)-2,5-piperazinedione]
15 | – | 19% | 60% | 76% | 71% | – | – | – | – | – | CSCc1ccc(/C=c2\[nH]c(=O)/c(=C/c3ccccc3)[nH]c2=O)cc1 [Compound 59, (3Z,6Z)-6-Benzylidene-3-(4-methylthiomethylbenzylidene)-2,5-piperazinedione]
16 | – | 2% | 1% | 3% | 50% | – | – | – | – | – | COc1ccc(/C=c2\[nH]c(=O)/c(=C/c3ccc(OC)cc3OC)[nH]c2=O)cc1 [Compound 73, (3Z,6Z)-3-(2,4-Dimethoxybenzylidene)-6-(4-methoxybenzylidene)-2,5-piperazinedione]
17 | – | 3% | 14% | 40% | 68% | – | – | – | – | – | COc1ccc(/C=c2\[nH]c(=O)/c(=C/c3ccc(F)cc3F)[nH]c2=O)cc1 [Compound 69, (3Z,6Z)-3-(2,4-Difluorobenzylidene)-6-(4-methoxybenzylidene)-2,5-piperazinedione]
18 | 1% | 2% | 10% | 38% | 52% | – | – | – | – | – | COc1ccc(/C=c2\[nH]c(=O)/c(=C/c3ccc(O)cc3Cl)[nH]c2=O)cc1 [Compound 84, (3Z,6Z)-3-(2-Chloro-4-hydroxybenzylidene)-6-(4-methoxybenzylidene)-2,5-piperazinedione]
19 | – | 4% | 21% | 78% | 94% | – | – | – | – | – | COc1ccc(/C=c2\[nH]c(=O)/c(=C/c3ccccc3C(F)(F)F)[nH]c2=O)cc1 [Compound 70, (3Z,6Z)-3-(4-Methoxybenzylidene)-6-(2-trifluoromethylbenzylidene)-2,5-piperazinedione]
20 | 4% | 67% | 74% | 71% | 72% | – | – | – | – | – | CN(C)CCCOc1ccc(/C=c2\[nH]c(=O)/c(=C/c3ccccc3)[nH]c2=O)cc1 [Compound 98]
21 | 0% | 6% | 33% | 85% | 75% | – | – | – | – | – | COc1ccc(/C=c2\[nH]c(=O)/c(=C/c3ccccc3)[nH]c2=O)cc1OC [Compound 90, (3Z,6Z)-6-Benzylidene-3-(3,4-dimethoxybenzylidene)-2,5-piperazinedione]
22 | – | 1% | 11% | 43% | 65% | – | – | – | – | – | O=c1[nH]/c(=C\c2ccccc2Br)c(=O)[nH]/c1=C\c1ccccc1 [Compound 55, (3Z,6Z)-6-Benzylidene-3-(2-bromobenzylidene)-2,5-piperazinedione]
